What was measured:
Format in all cases: functional
Mythimna separata = assay: Insecticidal activity against Mythimna separata (Oriental armyworm) fourth-instar larvae reared compound pre-treated corn leaves assessed as insect mortality at 200 mg/L measured 2 days post compound dose
Aphis fabae = assay: Insecticidal activity against Aphis fabae (black bean aphid) infested soybean tender shoots measured 48 hr post compound dose by modified FAO dip method; design: concentration or dose not given beside the values
Tetranychus cinnabarinus = assay: Insecticidal activity against Tetranychus cinnabarinus (carmine spider mite) […] assessed as larvicidal activity at 0.006 mg/L after 48 hr

Row | Compound | mortality at 200 µg/mL (Mythimna separata) [%] | mortality (Aphis fabae) [%] | mortality at 0.006 µg/mL (Tetranychus cinnabarinus) [%]
1 | CCC(C)[C@H]1O[C@]2(CC[C@@H]1C)C[C@@H]1C[C@@H](C/C=C(\C)[C@@H](O[C@H]3C[C@H](OC)[C@@H](OC(=O)Nc4ccccc4)[C@H](C)O3)[C@@H](C)/C=C/C=C3\CO[C@@H]4[C@H](O)C(C)=C[C@@H](C(=O)O1)[C@]34O)O2 (some centres not stated) | 100 | 97.6 | 45.2
2 | CCC(C)[C@H]1O[C@]2(CC[C@@H]1C)C[C@@H]1C[C@@H](C/C=C(\C)[C@@H](O[C@H]3C[C@H](OC)[C@@H](OC(=O)/C(=N\OC)c4ccccc4)[C@H](C)O3)[C@@H](C)/C=C/C=C3\CO[C@@H]4/C(=N/OC)C(C)=C[C@@H](C(=O)O1)[C@]34O)O2 (some centres not stated) | 0 | 15.9 | 36.6
3 | CCC(C)[C@H]1O[C@]2(CC[C@@H]1C)C[C@@H]1C[C@@H](C/C=C(\C)[C@@H](O[C@H]3C[C@H](OC)[C@@H](OC(=O)c4ccc(F)cc4)[C@H](C)O3)[C@@H](C)/C=C/C=C3\CO[C@@H]4/C(=N/OC)C(C)=C[C@@H](C(=O)O1)[C@]34O)O2 (some centres not stated) | 0 | 11.2 | 11.1
4 | CCC(C)[C@H]1O[C@]2(CC[C@@H]1C)C[C@@H]1C[C@@H](C/C=C(\C)[C@@H](O[C@H]3C[C@H](OC)[C@@H](OC(=O)c4ccc(Cl)cc4)[C@H](C)O3)[C@@H](C)/C=C/C=C3\CO[C@@H]4/C(=N/OC)C(C)=C[C@@H](C(=O)O1)[C@]34O)O2 (some centres not stated) | 0 | 8.7 | 6.2
5 | CCC(C)[C@H]1O[C@]2(CC[C@@H]1C)C[C@@H]1C[C@@H](C/C=C(\C)[C@@H](OC(=O)c3ccc(F)cc3)[C@@H](C)/C=C/C=C3\CO[C@@H]4/C(=N/OC)C(C)=C[C@@H](C(=O)O1)[C@]34O)O2 (some centres not stated) | 0 | 0 | 19.8
6 | CCC(C)[C@H]1O[C@]2(CC[C@@H]1C)C[C@@H]1C[C@@H](C/C=C(\C)[C@@H](OC(=O)c3ccccc3)[C@@H](C)/C=C/C=C3\CO[C@@H]4/C(=N/OC)C(C)=C[C@@H](C(=O)O1)[C@]34O)O2 (some centres not stated) | 0 | 7.2 | 9.2
7 | CCC(C)[C@H]1O[C@]2(CC[C@@H]1C)C[C@@H]1C[C@@H](C/C=C(\C)[C@@H](OC(=O)c3ccc(F)cc3)[C@@H](C)/C=C/C=C3\CO[C@@H]4[C@H](O)C(C)=C[C@@H](C(=O)O1)[C@]34O)O2 (some centres not stated) | 83.3 | 56.8 | 47.4
8 | C/C=C\C(=O)O[C@@H]1/C(C)=C/C[C@@H]2C[C@@H](C[C@]3(CC[C@H](C)[C@@H](C(C)CC)O3)O2)OC(=O)[C@@H]2C=C(C)[C@@H](O)[C@H]3OC/C(=C\C=C\[C@@H]1C)[C@]32O (some centres not stated) | 76.8 | 73.5 | 40.9
9 | CCC(C)[C@H]1O[C@]2(CC[C@@H]1C)C[C@@H]1C[C@@H](C/C=C(\C)[C@@H](OC(=O)Nc3ccc(Cl)cc3)[C@@H](C)/C=C/C=C3\CO[C@@H]4[C@H](O)C(C)=C[C@@H](C(=O)O1)[C@]34O)O2 (some centres not stated) | 88.5 | 67.8 | 30.8
10 | CCC(C)[C@H]1O[C@]2(CC[C@@H]1C)C[C@@H]1C[C@@H](C/C=C(\C)[C@@H](O[C@H]3C[C@H](OC)[C@@H](OC(=O)c4ccccc4OC)[C@H](C)O3)[C@@H](C)/C=C/C=C3\CO[C@@H]4[C@H](O)C(C)=C[C@@H](C(=O)O1)[C@]34O)O2 (some centres not stated) | 98.2 | 100 | 16.4
11 | CCC(C)[C@H]1O[C@]2(CC[C@@H]1C)C[C@@H]1C[C@@H](C/C=C(\C)[C@@H](O[C@H]3C[C@H](OC)[C@@H](OC(=O)c4ccc(OC)cc4)[C@H](C)O3)[C@@H](C)/C=C/C=C3\CO[C@@H]4[C@H](O)C(C)=C[C@@H](C(=O)O1)[C@]34O)O2 (some centres not stated) | 100 | 92.3 | 9.7
12 | CCC(C)[C@H]1O[C@]2(CC[C@@H]1C)C[C@@H]1C[C@@H](C/C=C(\C)[C@@H](OC(=O)/C(=N\OC)c3ccccc3)[C@@H](C)/C=C/C=C3\CO[C@@H]4/C(=N/OC)C(C)=C[C@@H](C(=O)O1)[C@]34O)O2 (some centres not stated) | 0 | 6.5 | 49
13 | CCC(C)[C@H]1O[C@]2(CC[C@@H]1C)C[C@@H]1C[C@@H](C/C=C(\C)[C@@H](OC(=O)c3ccc(Cl)cc3)[C@@H](C)/C=C/C=C3\CO[C@@H]4/C(=N/OC)C(C)=C[C@@H](C(=O)O1)[C@]34O)O2 (some centres not stated) | 0 | 0 | 10.2
14 | CCC(C)[C@H]1O[C@]2(CC[C@@H]1C)C[C@@H]1C[C@@H](C/C=C(\C)[C@@H](O[C@H]3C[C@H](OC)[C@@H](OC(=O)c4ccc(OC)cc4)[C@H](C)O3)[C@@H](C)/C=C/C=C3\CO[C@@H]4/C(=N/OC)C(C)=C[C@@H](C(=O)O1)[C@]34O)O2 (some centres not stated) | 0 | 9.3 | 6.8

Source: ChEMBL document CHEMBL3046616, “Design, synthesis, and biological activities of milbemycin analogues” (2011)
